Series [1] is described as follows: Dissolution measurement assay (apparent solubility, non-sink) in FeSSIF solution (pH 5). The series is classed as physicochemical.
Method: The medium was prepared in accordance with the manufacturer's instructions. The amount of powder added depends on the wished “total PKI concentration”. […] For other experiments, the drug load was first estimated by HPLC and the amount of powder to obtain the drug concentration was calculated.
Typically, the powder was added in a 8 mL glass bottle and 7 mL of solution was added (typically FaSSIF, FeSSIF or SGF). The glass bottle was put on a shaker (approximately 1 rotation per minute) for dissolution. Samples of 500 μl where taken after different times, and subsequently centrifuged at approximately 15000 g for 3 minutes. The resulting supernatant was then analyzed by HPLC (C18 column Eclipse, 4.6 mm×15 cm, 1 mL/min, detection at 254-400 nM. Generally samples were taken after 5, 30 and 90 min and eventually 150 min.
The experiments were carried out by measuring concentration of solubilized PKI (mg/L) after 5, 30 and 90 minutes dissolution in a solution at about pH 6.5, namely FaSSIF (Fasted State Simulated Intestinal Fluid). Further, experiments were carried out in an alternative solution at about pH 5, namely FeSSIF (Fed State Simulated Intestinal Fluid). Samples of the solution were taken at various time intervals and the amount of protein kinase inhibitor was measured by the dissolution measurement assay described above.
The experiments were carried out by measuring concentration of PKI (mg/L) after 5, 30 and 90 minutes dissolution in a solution at about pH 6.5, namely FaSSIF (Fasted State Simulated Intestinal Fluid). Further, experiments were carried out in an alternative solution at about pH 5, namely FeSSIF (Fed State Simulated Intestinal Fluid). Samples of the solution were taken at various time intervals and the amount of PKI was measured by the dissolution measurement assay described above.
A short description of series [2]: Dissolution rate measurement in sink conditions, flow through cell system, FaSSIF, 37° C. The series is classed as physicochemical. To be noted: initial slope of accumulated % solubilized vs time, 0 to 10 minutes; sink condition in FaSSIF, 37° C. Here is the method:
Typically, said dissolution rate is measured by a flow through cell system in sink conditions, e.g., according to the US Pharmacopea (USP4). Dissolution measurement in sink conditions of hybrid nanoparticles may be measured in a method consisting of adding the wished amount of powder into a flow through cell system (SOTAX, Allschwill, Switzerland), mounting the cell onto its apparatus and then pumping the appropriate medium (typically FaSSIF, FeSSIF, SGF) through the powder. The temperature of the apparatus is typically set to 37° C. The amount of powder added into the cell depends on drug load of the powder: The exact amount of powder can be calculated from results obtained from drug load analysis of the powders. The PKI may be added into the flow through cell and a flow rate between 5 and 25 ml medium/min is pumped through the powder. […] Samples are typically taken after 0, 0.5, 1, 1.5, 2, 3, 4, 5, 6, 7, 8, 9, 10, 15, 20, 25, 30, 35 and 40 min from the moment the medium comes out from the flow through cell. The accumulated % solubilized of the amount of active substance added into the flow through cell can be calculated and plotted against time (min). The initial slope (“initial dissolution rate”, representing 0-10 minutes) of the graph may be estimated and taken as the dissolution rate of the material in sink condition at 37° C. in the given dissolution medium.
Typically, said dissolution rate is measured by a flow through cell system, for instance in sink conditions. […] The temperature of the apparatus is typically set to 37° C. The amount of powder added into the cell depends on drug load of the powder: The exact amount of powder can be calculated from results obtained from drug load analysis of the powders. The PKI may be added into the flow through cell and a flow rate between 5 and 25 ml medium/min is pumped through the powder. […] Samples are typically taken after 0, 0.5, 1, 1.5, 2, 3, 4, 5, 6, 7, 8, 9, 10, 15, 20, 25, 30, 35 and 40 min from the moment the medium comes out from the flow through cell. The accumulated % solubilized of the amount of active substance added into the flow through cell, can be calculated and plotted against time (min). The initial slope (“initial dissolution rate”, representing 0-10 minutes) of the graph can be estimated and taken as the dissolution rate of the material in sink condition at 37° C. in the given dissolution medium.
Dissolution measurement in sink conditions of compositions of the invention were measured in a method consisting of adding the wished amount of powder into a flow through cell system (SOTAX, Allschwill, Switzerland), mounting the cell onto its apparatus and then pumping the appropriate medium (typically FaSSIF, FeSSIF, SGF) through the powder. The temperature of the apparatus was set to 37° C. The amount of powder added into the cell depends on drug load of the powder: The exact amount of powder was calculated from results obtained from drug load analysis of the powders.
Typically, 3.5 to 7 mg PKI was added into the flow through cell and a flow rate between 8 and 16 ml medium/min (preferably about 8 ml medium/min) was pumped through the powder. One ml samples of the medium passing through the cell were collected at predetermined times. […] Samples were taken after 0, 0.5, 1, 1.5, 2, 3, 4, 5, 6, 7, 8, 9, 10, 15, 20, 25, 30, 35 and 40 min from the moment the medium comes out from the flow through cell. The accumulated % solubilized of the amount of active substance added into the flow through cell was calculated and plotted against time (min). The initial slope (“initial dissolution rate”) of the graph was estimated, as measured during 0 to 10 minutes, and taken as the dissolution rate of the material in sink condition at 37° C. in the given dissolution medium.

Structures are written as SMILES. Structures can show the parent of a compound that is named as a salt.

These results are taken from US9456992B2 (XSPRAY MICROPARTICLES AB, priority 2012, dated 2016).

Consider `C#Cc1cccc(Nc2ncnc3cc(OCCOC)c(OCCOC)cc23)c1` [Exp 69, Erlotinib HCl], for which the “% solubilized 30 min.” value in series [1] (erlotinib HCl, 30 min dissolution) was found to be 19.0%. For the same compound, the “AUC/ 90 min.” value in series [1] (erlotinib HCl, AUC during 90 min dissolution) came to 16303 Mg/min/L.
With `Cc1cn(-c2cc(NC(=O)c3ccc(C)c(Nc4nccc(-c5cccnc5)n4)c3)cc(C(F)(F)F)c2)cn1` [Exp 500, nilotinib HCl], the “Initial Dissolution Rate” value in series [2] stood at 0.27.
As to `Cc1cn(-c2cc(NC(=O)c3ccc(C)c(Nc4nccc(-c5cccnc5)n4)c3)cc(C(F)(F)F)c2)cn1` [Exp 41, Nilotinib HCl], the “% solubilized 30 min.” value in series [1] (nilotinib HCl, after 30 minutes dissolution) amounted to 0.18%.
`C[C@@H](Oc1cc(-c2cnn(C3CCNCC3)c2)cnc1N)c1c(Cl)ccc(F)c1Cl` [Exp 570, crizotinib]: the “Initial Dissolution Rate” value in series [2] was determined as 6.6.
On the same count and under the same terms, next, `CNC(=O)c1cc(Oc2ccc(NC(=O)Nc3ccc(Cl)c(C(F)(F)F)c3)cc2)ccn1` [Exp 560, sorafenib tosylate]: 0.47; `COc1cc2ncnc(Nc3ccc(F)c(Cl)c3)c2cc1OCCCN1CCOCC1` [Exp 540, gefitinib]: 2.2.
